Laboratory results reported in US20210393633A1, “INHIBITORS OF HUMAN IMMUNODEFICIENCY VIRUS REPLICATION” (ViiV HEALTHCARE UK (NO.5) LIMITED, priority 2018, published 2021).
pEC50: −log10 of the molar value.

Columns and labels:
[1] = system: recombinant NL4-3 virus (nef section replaced with Renilla luciferase gene) in MT-2 cells; experiment: HIV cell culture assay (antiviral activity, luciferase readout in infected MT-2 cells); type: cell-based; settings: NL43
Experimental: HIV cell culture assay—MT-2 cells, 293T cells and the proviral DNA clone of NL4-3 virus were obtained from the NIH AIDS Research and Reference Reagent Program. MT-2 cells were propagated in RPMI 1640 media supplemented with 10% heat inactivated fetal bovine serum (FBS), […]. The 293T cells were propagated in DMEM media supplemented with 10% heat inactivated FBS, […]. A recombinant NL4-3 proviral clone, in which a section of the nef gene was replaced with the Renilla luciferase gene, was used to make the reference virus used in these studies. The recombinant virus was prepared through transfection of the recombinant NL4-3 proviral clone into 293T cells using Transit-293 Transfection Reagent from Minis Bio LLC (Madison, Wis.). Supernatent was harvested after 2-3 days and the amount of virus present was titered in MT-2 cells using luciferase enzyme activity as a marker by measuring luciferase enzyme activity. Luciferase was quantitated using the EnduRen Live Cell Substrate from Promega (Madison, Wis.). Antiviral activities of compounds toward the recombinant virus were quantified by measuring luciferase activity in MT-2 cells infected for 4-5 days with the recombinant virus in the presence of serial dilutions of the compound.
The 50% effective concentration (EC5o) was calculated by using the exponential form of the median effect equation where (Fa)=1/[1+(ED50/drug conc.)m] (Johnson Va., Byington R T. Infectivity Assay. In Techniques in HIV Research. ed. Aldovini A, Walker B D. 71-76. New York: Stockton Press.1990). The 50% inhibitory concentration (EC50) was calculated by using the exponential form of the median effect equation where percent inhibition=1/[1 +(EC50/drug concentration)m], where m is a parameter that reflects the slope of the concentration-response curve.

[2] = Compound cytotoxicity, XTT-based colorimetric assay; type: cell-based; settings: human; uninfected MT2 cells, day 4, XTT
Experimental: Compound cytotoxicity and the corresponding CC50 values were determined using the same protocol as described in the antiviral assay except that uninfected cells were used. Cytotoxicity was assessed on day 4 in uninfected MT2 cells by using a XTT (2,3-bis[2-Methoxy-4-nitro-5-sulfophenyl]-2H-tetrazolium-5-carboxyanilide inner salt)-based colorimetric assay (Sigma-Aldrich, St Louis, Mo).

Structure (SMILES): C[C@@H]1CC(c2ccc3c(=O)n(-c4ccc(Cl)c5c(NS(C)(=O)=O)nn(C)c45)c([C@H](Cc4cc(F)cc(F)c4)NC(=O)Cn4nc(C(F)F)c5c4C(F)(F)[C@@H]4C[C@H]54)nc3c2)C[C@H](C)O1 (stereo partly drawn) [Example 22, N-((1S)-1-((3P)-3-(4-chloro-1-methyl-3-(methylsulfonamido)-1H-indazol-7-yl)-7-((2R,6S)-2,6-dimethyltetrahydro-2H-pyran-4-yl)-4-oxo-3,4-dihydroquinazolin-2-yl)-2-(3,5-difluorophenyl)ethyl)-2-((3bS,4aR)-3-(difluoromethyl)-5,5-difluoro-3b,4,4a,5-tetrahydro-1H-cyclopropa[3,4]cyclopenta[1,2-c]pyrazol-1-yl)acetamide]
- pEC50 [1]: 10.09
- CC50 at 4 day [2]: > 500 nM
